# Experimental data taken from patent US7932270B2 (Cytokinetics, Inc., priority 2006, dated 2011).
# Target: T1, chicken gizzard smooth muscle myosin subfragment-1 chemically crosslinked to cardiac or skeletal actin (Gallus gallus, UniProt P10587)
# T1 construct: chicken gizzard smooth muscle myosin subfragment-1; from tissue; host or cells: chicken gizzard
# Experiment: Smooth muscle myosin ATPase dose response assay (pyruvate kinase/horseradish peroxidase/pyruvate oxidase-coupled, amplex red fluorescence)
# Type: biochemical
# Conditions: read-out: IC50 Arithmetic Mean
# Method in brief: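 EDC/NHS-crosslinked S1–actin, amount set per prep by rate titration. Buffer: 12 mM K-PIPES pH 7.00 (22° C), 100 mM KCl, 2 mM MgCl2, 0.15 mM ATP, 0.1 mM PEP, 2 mM KPi, 0.1 mM amplex red. Read ex 480/em 615 nm; IC50 = midpoint, 4-param Hill fit.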
# T1 sequence (P02607 2-151): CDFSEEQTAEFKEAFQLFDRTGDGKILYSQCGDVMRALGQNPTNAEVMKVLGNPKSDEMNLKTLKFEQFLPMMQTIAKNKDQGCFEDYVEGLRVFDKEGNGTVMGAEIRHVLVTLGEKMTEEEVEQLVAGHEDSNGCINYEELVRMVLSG
# T1 sequence (P10587 84-789): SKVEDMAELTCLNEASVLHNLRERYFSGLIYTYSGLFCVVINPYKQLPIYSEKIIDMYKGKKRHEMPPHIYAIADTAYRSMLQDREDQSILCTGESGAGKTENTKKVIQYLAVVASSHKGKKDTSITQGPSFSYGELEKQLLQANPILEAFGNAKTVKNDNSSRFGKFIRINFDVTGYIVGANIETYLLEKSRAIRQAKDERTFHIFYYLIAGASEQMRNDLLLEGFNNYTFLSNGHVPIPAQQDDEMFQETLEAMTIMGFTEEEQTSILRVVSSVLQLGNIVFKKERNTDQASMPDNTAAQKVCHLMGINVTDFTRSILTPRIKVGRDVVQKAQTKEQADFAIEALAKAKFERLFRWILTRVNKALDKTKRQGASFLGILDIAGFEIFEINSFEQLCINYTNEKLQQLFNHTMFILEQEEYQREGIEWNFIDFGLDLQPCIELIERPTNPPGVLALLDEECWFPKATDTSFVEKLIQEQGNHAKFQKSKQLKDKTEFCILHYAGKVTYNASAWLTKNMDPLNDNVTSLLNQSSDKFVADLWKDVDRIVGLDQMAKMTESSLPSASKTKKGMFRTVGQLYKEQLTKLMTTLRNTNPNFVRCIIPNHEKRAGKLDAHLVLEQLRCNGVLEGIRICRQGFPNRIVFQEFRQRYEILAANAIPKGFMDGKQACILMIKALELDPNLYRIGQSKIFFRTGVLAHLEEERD
row,SMILES,IC50 [nM]
1,Cc1ccccc1CCNc1nc(-c2ccccc2)ccc1C(=O)NCc1cccnc1 [(2-{[2-(2-methylphenyl)ethyl]amino}-6-phenyl(3-pyridyl))-N-(3-pyridylmethyl)carboxamide],326
2,O=C(NCc1cccnc1)c1ccc(-c2ccccc2)nc1NCCN1CCCCC1=O [(2-{[2-(2-oxopiperidyl)ethyl]amino}-6-phenyl(3-pyridyl))-N-(3-pyridylmethyl)carboxamide],22100
3,O=C(NCc1cccnc1)c1ccc(-c2ccccc2)nc1NCCN1CCCC1=O [(2-{[2-(2-oxopyrrolidinyl)ethyl]amino}-6-phenyl(3-pyridyl))-N-(3-pyridylmethyl)carboxamide],10600
4,"O=C(NCc1cccnc1)c1ccc(-c2ccccc2)nc1NCCc1ccc(F)c(F)c1 [(2-{[2-(3,4-difluorophenyl)ethyl]amino}-6-phenyl(3-pyridyl))-N-(3-pyridylmethyl)carboxamide]",521
5,"N#Cc1ccccc1-c1ccc(C(=O)NCc2cccnc2)c(NCCc2cc(F)cc(F)c2)n1 [(2-{[2-(3,5-difluorophenyl)ethyl]amino}-6-(2-cyanophenyl)(3-pyridyl))-N-(3-pyridylmethyl)carboxamide]",41
6,"O=C(NCc1cccnc1)c1ccc(-c2cccs2)nc1NCCc1cc(F)cc(F)c1 [(2-{[2-(3,5-difluorophenyl)ethyl]amino}-6-(2-thienyl)(3-pyridyl))-N-(3-pyridylmethyl)carboxamide]",97
7,"O=C(NCc1cccnc1)c1ccc(-c2ccsc2)nc1NCCc1cc(F)cc(F)c1 [(2-{[2-(3,5-difluorophenyl)ethyl]amino}-6-(3-thienyl)(3-pyridyl))-N-(3-pyridylmethyl)carboxamide]",40
8,"O=C(NCc1cccnc1)c1ccc(-c2ccc(F)cc2)nc1NCCc1cc(F)cc(F)c1 [(2-{[2-(3,5-difluorophenyl)ethyl]amino}-6-(4-fluorophenyl)(3-pyridyl))-N-(3-pyridylmethyl)carboxamide]",138
9,"Cc1csc(-c2ccc(C(=O)NCc3cccnc3)c(NCCc3cc(F)cc(F)c3)n2)c1 [(2-{[2-(3,5-difluorophenyl)ethyl]amino}-6-(4-methyl(2-thienyl))(3-pyridyl))-N-(3-pyridylmethyl)carboxamide]",119
10,"O=C(NCc1cccnc1)c1ccc(-c2ccccc2)nc1NCCc1cc(F)cc(F)c1 [(2-{[2-(3,5-difluorophenyl)ethyl]amino}-6-phenyl(3-pyridyl))-N-(3-pyridylmethyl)carboxamide]",55
11,"Cc1n[nH]c(C)c1CCNc1nc(-c2ccccc2)ccc1C(=O)NCc1cccnc1 [(2-{[2-(3,5-dimethylpyrazol-4-yl)ethyl]amino}-6-phenyl(3-pyridyl))-N-(3-pyridylmethyl)carboxamide]",5940
12,"Cc1cc(C)n(CCNc2nc(-c3ccccc3)ccc2C(=O)NCc2cccnc2)n1 [(2-{[2-(3,5-dimethylpyrazolyl)ethyl]amino}-6-phenyl(3-pyridyl))-N-(3-pyridylmethyl)carboxamide]",6830
13,O=C(NCc1cccnc1)c1ccc(-c2ccccc2)nc1NCCc1cccc(Cl)c1 [(2-{[2-(3-chlorophenyl)ethyl]amino}-6-phenyl(3-pyridyl))-N-(3-pyridylmethyl)carboxamide],349
14,N#Cc1cccc(CCNc2nc(-c3ccccc3)ccc2C(=O)NCc2cccnc2)c1 [(2-{[2-(3-cyanophenyl)ethyl]amino}-6-phenyl(3-pyridyl))-N-(3-pyridylmethyl)carboxamide],4650
15,O=C(NCc1cccnc1)c1ccc(-c2ccccc2)nc1NCCc1ncccc1F [(2-{[2-(3-fluoro(2-pyridyl))ethyl]amino}-6-phenyl(3-pyridyl))-N-(3-pyridylmethyl)carboxamide],1480
16,O=C(NCc1cccnc1)c1ccc(-c2ccccc2)nc1NCC(O)c1cccc(F)c1 (centres unmarked) [(2-{[2-(3-fluorophenyl)-2-hydroxyethyl]amino}-6-phenyl(3-pyridyl))-N-(3-pyridylmethyl)carboxamide],559
17,O=C(NCc1cccnc1)c1c(CO)cc(-c2ccccc2)nc1NCCc1cccc(F)c1 [(2-{[2-(3-fluorophenyl)ethyl]amino}-4-(hydroxymethyl)-6-phenyl(3-pyridyl))-N-(3-pyridylmethyl)carboxamide],59100
18,O=C(NCc1cccnc1)c1cc(CO)c(-c2ccccc2)nc1NCCc1cccc(F)c1 [(2-{[2-(3-fluorophenyl)ethyl]amino}-5-(hydroxymethyl)-6-phenyl(3-pyridyl))-N-(3-pyridylmethyl)carboxamide],625
19,"O=C(NCc1cccnc1)c1cc2c(nc1NCCc1cccc(F)c1)-c1ccccc1C2=O [(2-{[2-(3-fluorophenyl)ethyl]amino}-5-oxoindeno[3,2-b]pyridin-3-yl)-N-(3-pyridylmethyl)carboxamide]",88

row,SMILES,IC50 [nM]
1,Cn1cc(-c2ccc(C(=O)NCc3cc[nH]n3)c(NCCc3cccc(F)c3)n2)cn1 [(2-{[2-(3-fluorophenyl)ethyl]amino}-6-(1-methylpyrazol-4-yl)(3-pyridyl))-N-(pyrazol-3-ylmethyl)carboxamide],31
2,Cn1cc(-c2ccc(C(=O)NCC3CCNC3=O)c(NCCc3cccc(F)c3)n2)cn1 (centres unmarked) [(2-{[2-(3-fluorophenyl)ethyl]amino}-6-(1-methylpyrazol-4-yl)(3-pyridyl))-N-[(2-oxopyrrolidin-3-yl)methyl]carboxamide],248
3,Cn1cc(-c2ccc(C(=O)NCC3CNCC(=O)N3)c(NCCc3cccc(F)c3)n2)cn1 (centres unmarked) [(2-{[2-(3-fluorophenyl)ethyl]amino}-6-(1-methylpyrazol-4-yl)(3-pyridyl))-N-[(6-oxopiperazin-2-yl)methyl]carboxamide],1240
4,Cn1cc(-c2ccc(C(=O)NCC3CCCCC(=O)N3)c(NCCc3cccc(F)c3)n2)cn1 (centres unmarked) [(2-{[2-(3-fluorophenyl)ethyl]amino}-6-(1-methylpyrazol-4-yl)(3-pyridyl))-N-[(7-oxoazaperhydroepin-2-yl)methyl]carboxamide],603
5,O=Cc1sccc1-c1ccc(C(=O)NCc2cccnc2)c(NCCc2cccc(F)c2)n1 [(2-{[2-(3-fluorophenyl)ethyl]amino}-6-(2-formyl(3-thienyl))(3-pyridyl))-N-(3-pyridylmethyl)carboxamide],1480
6,O=C(NCc1cccnc1)c1ccc(-c2cccs2)nc1NCCc1cccc(F)c1 [(2-{[2-(3-fluorophenyl)ethyl]amino}-6-(2-thienyl)(3-pyridyl))-N-(3-pyridylmethyl)carboxamide],137
7,O=Cc1ccsc1-c1ccc(C(=O)NCc2cccnc2)c(NCCc2cccc(F)c2)n1 [(2-{[2-(3-fluorophenyl)ethyl]amino}-6-(3-formyl(2-thienyl))(3-pyridyl))-N-(3-pyridylmethyl)carboxamide],783
8,O=C(NCc1cccnc1)c1ccc(-c2ccsc2)nc1NCCc1cccc(F)c1 [(2-{[2-(3-fluorophenyl)ethyl]amino}-6-(3-thienyl)(3-pyridyl))-N-(3-pyridylmethyl)carboxamide],48
9,Cc1csc(-c2ccc(C(=O)NCc3cccnc3)c(NCCc3cccc(F)c3)n2)c1 [(2-{[2-(3-fluorophenyl)ethyl]amino}-6-(4-methyl(2-thienyl))(3-pyridyl))-N-(3-pyridylmethyl)carboxamide],148
10,O=Cc1ccc(-c2ccc(C(=O)NCc3cccnc3)c(NCCc3cccc(F)c3)n2)s1 [(2-{[2-(3-fluorophenyl)ethyl]amino}-6-(5-formyl(2-thienyl))(3-pyridyl))-N-(3-pyridylmethyl)carboxamide],52
11,O=Cc1cc(-c2ccc(C(=O)NCc3cccnc3)c(NCCc3cccc(F)c3)n2)cs1 [(2-{[2-(3-fluorophenyl)ethyl]amino}-6-(5-formyl(3-thienyl))(3-pyridyl))-N-(3-pyridylmethyl)carboxamide],98
12,O=C(NCc1cccnc1)c1ccc(-c2cnn(CCO)c2)nc1NCCc1cccc(F)c1 [(2-{[2-(3-fluorophenyl)ethyl]amino}-6-[1-(2-hydroxyethyl)pyrazol-4-yl](3-pyridyl))-N-(3-pyridylmethyl)carboxamide],972
13,O=C(NCc1cccnc1)c1ccc(-c2ccsc2CO)nc1NCCc1cccc(F)c1 [(2-{[2-(3-fluorophenyl)ethyl]amino}-6-[2-(hydroxymethyl)(3-thienyl)](3-pyridyl))-N-(3-pyridylmethyl)carboxamide],1570
14,O=C(NCc1cccnc1)c1ccc(-c2sccc2CO)nc1NCCc1cccc(F)c1 [(2-{[2-(3-fluorophenyl)ethyl]amino}-6-[3-(hydroxymethyl)(2-thienyl)](3-pyridyl))-N-(3-pyridylmethyl)carboxamide],2240
15,O=C(NCc1cccnc1)c1ccc(-c2cccc(CO)c2)nc1NCCc1cccc(F)c1 [(2-{[2-(3-fluorophenyl)ethyl]amino}-6-[3-(hydroxymethyl)phenyl](3-pyridyl))-N-(3-pyridylmethyl)carboxamide],281
16,COCc1cccc(-c2ccc(C(=O)NCc3cccnc3)c(NCCc3cccc(F)c3)n2)c1 [(2-{[2-(3-fluorophenyl)ethyl]amino}-6-[3-(methoxymethyl)phenyl](3-pyridyl))-N-(3-pyridylmethyl)carboxamide],5720
17,CC(O)c1ccc(-c2ccc(C(=O)NCc3cccnc3)c(NCCc3cccc(F)c3)n2)s1 (centres unmarked) [(2-{[2-(3-fluorophenyl)ethyl]amino}-6-[5-(hydroxyethyl)(2-thienyl)](3-pyridyl))-N-(3-pyridylmethyl)carboxamide],415
18,O=C(NCc1ccccn1)c1ccc(-c2ccc(CO)s2)nc1NCCc1cccc(F)c1 [(2-{[2-(3-fluorophenyl)ethyl]amino}-6-[5-(hydroxymethyl)(2-thienyl)](3-pyridyl))-N-(2-pyridylmethyl)carboxamide],45
19,O=C(NCc1cccnc1)c1ccc(-c2ccc(CO)s2)nc1NCCc1cccc(F)c1 [(2-{[2-(3-fluorophenyl)ethyl]amino}-6-[5-(hydroxymethyl)(2-thienyl)](3-pyridyl))-N-(3-pyridylmethyl)carboxamide],41
